Data published in the Kinase Knowledgebase extract (Sharma et al. 2016).

Biological target: CDK2 (UniProt P24941)
Assay: Enzyme Assay

Row | Structure (SMILES) | IC50 [nM]
1 | Cc1cc(-c2[nH]nc3c2C(=O)c2c(NC(=O)NN4CCOCC4)cccc2-3)ccc1OCCN1CCCC1 | < 100
2 | CC(C)c1nn(-c2c(Cl)cc(Cl)cc2Cl)c2nc(Cc3ccc(CNC(CO)CO)n3C)[nH]c(=O)c12 | < 10
3 | COc1ccc(Cc2nc3c(c(C(C)C)nn3-c3c(Cl)cccc3Cl)c(=O)[nH]2)cc1 | < 10
4 | CC(C)c1nn(-c2c(Cl)cc(Cl)cc2Cl)c2nc(Cc3ccc(NS(=O)(=O)CCCN4CCCC4)cc3)[nH]c(=O)c12 | < 100
5 | CC(C)c1nn(-c2c(Cl)cccc2Cl)c2nc(Cc3ccc(OCC(C)(C)O)cc3)[nH]c(=O)c12 | < 100
6 | O=C(O)COc1ccc(-c2n[nH]c3c2C(=O)c2c(NC(=O)NN4CCOCC4)cccc2-3)cc1 | < 10
7 | CN1CCN(NC(=O)Nc2cccc3c2C(=O)c2c-3n[nH]c2-c2ccc(OCC(=O)N3CCCC3)cc2)CC1 | < 100
8 | CN1CCN(NC(=O)Nc2cccc3c2C(=O)c2c-3n[nH]c2-c2ccc(OCCN3CCC[C@H]3CO)cc2)CC1 | < 100
9 | CN1CCN(NC(=O)Nc2cccc3c2C(=O)c2c(-c4ccc(OCCN5CCCC5)c(F)c4)n[nH]c2-3)CC1 | < 100
10 | O=C(Nc1cccc2c1C(=O)c1c-2n[nH]c1-c1ccc(S(=O)(=O)N2CCNCC2)cc1)NN1CCOCC1 | < 100
11 | Cc1cc(OCCCN2CCN(C(C)C)CC2)ccc1-c1[nH]nc2c1C(=O)c1c(NC(=O)NN3CCOCC3)cccc1-2 | < 10
12 | Cc1cc(-c2[nH]nc3c2C(=O)c2c(NC(=O)NN4CCOCC4)cccc2-3)ccc1OCCN1CCN(C(C)C)CC1 | < 10
13 | CC(C)N1CCN(CCCOc2ccc(-c3[nH]nc4c3C(=O)c3c(NC(=O)NN5CCOCC5)cccc3-4)cc2)CC1 | < 10
14 | O=C(Nc1cccc2c1C(=O)c1c-2n[nH]c1-c1ccc(OCCN2CCOCC2)cc1)NN1CCOCC1 | < 100
15 | CN(C)C(=O)COc1ccc(-c2[nH]nc3c2C(=O)c2c(NC(=O)NN4CCOCC4)cccc2-3)cc1 | < 10
16 | CC(C)c1nn(-c2c(Cl)cccc2Cl)c2nc(Cc3ccc(OCCN4CCOCC4)cc3)[nH]c(=O)c12 | < 10

Row | Structure (SMILES) | IC50 [nM]
17 | CC(C)N1CCN(CCOc2ccc(-c3n[nH]c4c3C(=O)c3c(NC(=O)NN5CCOCC5)cccc3-4)cc2F)CC1 | < 10
18 | Cc1cc(OCCN2CCCC2)ccc1-c1[nH]nc2c1C(=O)c1c(NC(=O)NN3CCOCC3)cccc1-2 | < 10
19 | O=C(Nc1cccc2c1C(=O)c1c(-c3ccc(OCCN4CCOCC4)cc3Cl)n[nH]c1-2)NN1CCOCC1 | < 100
20 | O=C(Nc1cccc2c1C(=O)c1c-2n[nH]c1-c1ccc(OP(=O)(O)O)cc1)NN1CCOCC1 | < 100
21 | CC(C)c1nn(-c2c(Cl)cccc2Cl)c2nc(Cc3ccc(OCCN4CCOCC4)c(O)c3)[nH]c(=O)c12 | < 100
22 | CCOC(=O)CN1CCN(NC(=O)Nc2cccc3c2C(=O)c2c-3n[nH]c2-c2ccc(OCCN3CCCC3)cc2)CC1 | < 100
23 | CC(C)c1nn(-c2c(Cl)cc(S(N)(=O)=O)cc2Cl)c2nc(Cc3ccc(OCCN4CCOCC4)cc3)[nH]c(=O)c12 | < 10
24 | O=C(Nc1cccc2c1C(=O)c1c(-c3ccc(CN4CCOCC4)cc3)n[nH]c1-2)NN1CCOCC1 | < 100
25 | O=C(Nc1cccc2c1C(=O)c1c-2n[nH]c1-c1ccc(OCC(=O)N2CCCC2)cc1)NN1CCOCC1 | < 100
26 | O=C(Nc1cccc2c1C(=O)c1c(-c3ccc(CNC(CO)CO)cc3)n[nH]c1-2)NN1CCOCC1 | < 10
27 | CC(C)c1nn(-c2c(Cl)cccc2Cl)c2nc(Cc3ccc(OCCOC(=O)[C@@H](N)C(C)C)cc3)[nH]c(=O)c12 | < 100
28 | O=C(Nc1cccc2c1C(=O)c1c(-c3ccc(OCc4nnn[nH]4)cc3)n[nH]c1-2)NN1CCOCC1 | < 100
29 | Cc1cc(-c2[nH]nc3c2C(=O)c2c(NC(=O)NN4CCN(C)CC4)cccc2-3)ccc1OCCN1CCCC1 | < 100
30 | O=C(Nc1cccc2c1C(=O)c1c(-c3ccc(CN(CCO)CCO)cc3)n[nH]c1-2)NN1CCOCC1 | < 100
31 | Cc1cc(OCCN2CCN(C(C)C)CC2)ccc1-c1[nH]nc2c1C(=O)c1c(NC(=O)NN3CCN(C)CC3)cccc1-2 | < 100
32 | O=C(Nc1cccc2c1C(=O)c1c(-c3ccc(CN4CCCC4)cc3)n[nH]c1-2)NN1CCOCC1 | < 100
